Laboratory results: publication PMC4605392 (The international journal of biochemistry & cell biology, 2010)
Several values for one entry are separate records, joined by “and”; a condition that tells them apart may be missing. Identical values can stand only once. Counter-ions that a name gives are not always drawn. Like-named read-outs stand apart in the source and are kept apart here.

How the values were obtained:
human α4β2 AChR = human α4β2 AChR (Homo sapiens, UniProt P17787+P43681); test: cell-based; type: cell-based
[1] = biological target: [^3H]imipramine binding sites at the human α4β2 AChR (Homo sapiens, UniProt P17787+P43681); details: for ΔG^20: calculated from Ki, Eq. (4), 293 K
[2] = therapeutic doses, ref Glotzbach and Preskorn, 1982; cited from earlier work
[3] = ref Nangia et al., 1996; cited from earlier work
hα4β2 AChR [4] = biological target: T1, hα4β2 AChR (Homo sapiens, UniProt P17787+P43681); type: binding; details: for koff: 20 °C; for kon: kon = koff·Ka
hα4β2 AChR [5] = biological target: T1, hα4β2 AChR; test: Thermodynamic parameters of imipramine binding; details: for Ea (dissociation process): Arrhenius plot; for ΔH°: van't Hoff plot; for ΔG^20: Eq. (8); for ΔH^+ (enthalpy change of the transition state): Eq. (10)
hα4β2 AChR [6] = biological target: T1, hα4β2 AChR; test: Equilibrium binding of [3H]imipramine to HEK293-hα4β2 AChR membranes
[7] = resting state, absence of k-BTx (no ligand)
[8] = resting state, absence of k-BTx
[9] = Ki, resting state, absence of k-BTx (no ligand)
[10] = desensitized state, presence of 1 μM (−)-cytisine
[11] = resting state, presence of k-BTx
[12] = Epibatidine treated column (desensitized state)
[13] = κ-BTx treated column (resting state)

Compound: CN(C)CCC=C1c2ccccc2COc2ccccc21 [Doxepin, doxepin hydrochloride]
- IC50 (human α4β2 AChR): 6.8 ± 1.6 µM
- nH (Hill coefficient) (human α4β2 AChR): 1.32 ± 0.29
- Ki [1]: 2.1 ± 0.2 µM
- nH (Hill coefficient) [1, 7]: 0.73 ± 0.05
- ΔG^20 [1, 8]: -7.6 ± 0.072 kcal/mol

Compound: Clc1ccc(C2CC3CCC2N3)cn1 (racemic) [(±)-epibatidine, (±)-Epibatidine]
- nH (Hill coefficient) (human α4β2 AChR; activation of hα4β2 AChR, Ca2+ influx in HEK293-hα4β2 cells): 1.03 ± 0.04

Compound: CN(C)CCC=C1c2ccccc2CCc2ccccc21 [Amitriptyline, amitriptyline hydrochloride]
- IC50 (human α4β2 AChR): 2.2 ± 0.6 µM
- nH (Hill coefficient) (human α4β2 AChR): 1.50 ± 0.08
- Ki [1, 9]: 1.1 ± 0.1 µM
- nH (Hill coefficient) [1, 7]: 0.98 ± 0.11
- ΔG^20 [1, 8]: -7.96 ± 0.072 kcal/mol
- concentration in the rat brain [2]: 1000 to 10000 nM

Compound: CNC1(C)C2CCC(C2)C1(C)C (racemic) [(±)-Mecamylamine, (±)-mecamylamine hydrochloride]
- IC50 (human α4β2 AChR): 3 ± 0.7 µM
- nH (Hill coefficient) (human α4β2 AChR): 1.17 ± 0.12
- IC50 ([1]; IC50, desensitized state, presence of 1 μM (−)-cytisine): 209 ± 34 µM
- IC50 ([1]; IC50, resting state, presence of k-BTx): 135 ± 19 µM
- inhibition of specific [3H]imipramine binding ([1]; at maximum concentration tested, resting and desensitized states): ~ 70%
- nH (Hill coefficient) [1, 10]: 0.58 ± 0.06
- nH (Hill coefficient) [1, 11]: 0.53 ± 0.05
- pKa [3]: 11.4

Compound: CN(C)CCCN1c2ccccc2CCc2ccccc21 [Imipramine, Imipramine hydrochloride]
- IC50 (human α4β2 AChR): 5.4 ± 1.2 µM
- nH (Hill coefficient) (human α4β2 AChR): 1.39 ± 0.13
- Ki ([1]; Ki, desensitized state, presence of 1 μM (−)-cytisine): 0.97 ± 0.1 µM
- Ki [1, 9]: 1.1 ± 0.1 µM
- Ki ([1]; Ki, resting state, presence of 0.1 μM k-BTx): 0.93 µM
- nH (Hill coefficient) [1, 10]: 0.84 ± 0.07
- ΔG^20 ([1]; desensitized state, presence of (−)-cytisine): -8.05 ± 0.048 kcal/mol
- nH (Hill coefficient) [1, 7]: 0.73 ± 0.04
- ΔG^20 [1, 8]: -7.98 ± 0.048 kcal/mol
- nH (Hill coefficient) [1, 11]: 0.87 ± 0.07
- Ka (hα4β2 AChR [4]; [12]): 2.52 ± 0.08 µM⁻¹
- koff (hα4β2 AChR [4]; [12]): 0.076 ± 0.002 s⁻¹
- ΔG^20 (hα4β2 AChR [4]; Epibatidine treated column (desensitized state), Eq. (4)): -8.58 ± 0.024 kcal/mol
- kon (hα4β2 AChR [4]; [12]): 192000 ± 3000 M⁻¹ s⁻¹
- Ka (hα4β2 AChR [4]; [13]): 2.54 ± 0.07 µM⁻¹
- koff (hα4β2 AChR [4]; [13]): 0.09 ± 0.001 s⁻¹
- kon (hα4β2 AChR [4]; [13]): 229000 ± 8000 M⁻¹ s⁻¹
- −TΔS° (hα4β2 AChR [5]; [12]): -5.93 kcal/mol and -5.93 ± 0.382 kcal/mol
- Ea (dissociation process) (hα4β2 AChR [5]; [12]): 2.96 ± 0.263 kcal/mol
- ΔH° (hα4β2 AChR [5]; [12]): -2.65 kcal/mol and -2.65 ± 0.382 kcal/mol
- ΔG^20 (hα4β2 AChR [5]; [12]): -8.58 ± 0.478 kcal/mol
- ΔH^+ (enthalpy change of the transition state) (hα4β2 AChR [5]; [12]): 2.37 ± 0.263 kcal/mol
- −TΔS° (hα4β2 AChR [5]; [13]): -3.85 ± 0.55 kcal/mol
- Ea (dissociation process) (hα4β2 AChR [5]; [13]): 4.54 ± 0.454 kcal/mol
- ΔH° (hα4β2 AChR [5]; [13]): -4.76 ± 0.55 kcal/mol
- ΔG^20 (hα4β2 AChR [5]; [13]): -8.56 ± 0.693 kcal/mol
- ΔH^+ (enthalpy change of the transition state) (hα4β2 AChR [5]; [13]): 3.97 ± 0.454 kcal/mol

Compound: [^3H]Imipramine
- specific activity (Bmax, imipramine binding sites) (hα4β2 AChR [6]; HEK293-hα4β2 membranes, x-intersect of Rosenthal-Scatchard plot): 8.6 ± 0.5 pmol/mg protein
- Kd (hα4β2 AChR [6]; resting/no ligand state, Rosenthal-Scatchard plot, 2 h at RT): 0.83 ± 0.08 µM
